Numbered stars: 1 amine (or outer) side, 2 acyl side, 3 side chain; on linkers, the order of the positions; unused ones are H or OH. Bridge positions count the residues as written; N and C are the ends. Square brackets hold non-standard residues; d marks the D form. Side chains are listed from the residue outwards. Peptide text beside a SMILES is read from it. I, II: the chains in the order shown. * marks the point of attachment. C18 diacid = O=C(O)CCCCCCCCCCCCCCCCC(=O)*; γGlu = O=C(O)[C@H](CCC(=O)[*:2])N[*:1]; Ac4c = NC1(C(=O)O)CCC1; AEEA = NCCOCCOCC(=O)O; Aib = CC(C)(N)C(=O)O
experiment: Thioflavin T (ThT) fibrillation assay for physical stability; format: physicochemical; conditions: 250 μM in 10 mM HEPES buffer, pH 7.5, 37° C., shaking 960 rpm
How it was run: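 Peptide at 250 μM in 10 mM HEPES pH 7.5 with 1 μM ThT, at 37° C with 960 rpm orbital shaking. Fluorescence (ex 444/em 485 nm) read every 20 min after 10 min pre-incubation; sigmoidal fit gives lag time (t0−2τ) and kapp (1/τ). Recovery is RP-HPLC peptide in the centrifuged, 0.22 μm-filtered supernatant as % of initial.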

SMILES	THT assay Lag time (Ex. 76) [h]
CC(C)C[C@H](NC(=O)[C@H](CC(=O)O)NC(=O)[C@H](CC(C)C)NC(=O)[C@H](Cc1ccc(O)cc1)NC(=O)[C@H](CCCCN)NC(=O)[C@H](CO)NC(=O)[C@H](CC(C)C)NC(=O)[C@H](CC(=O)O)NC(=O)[C@H](CO)NC(=O)[C@@H](NC(=O)[C@H](Cc1ccccc1)NC(=O)[C@@H](NC(=O)CNC(=O)[C@H](CCC(N)=O)NC(=O)C1(NC(=O)[C@@H](N)Cc2c[nH]cn2)CCC1)[C@@H](C)O)[C@@H](C)O)C(=O)N[C@@H](CCCCN)C(=O)N[C@@H](CCCNC(=N)N)C(=O)N[C@@H](C)C(=O)N[C@@H](CCCNC(=N)N)C(=O)N[C@@H](CCC(=O)O)C(=O)N[C@@H](Cc1ccccc1)C(=O)N[C@H](C(=O)N[C@@H](CCC(N)=O)C(=O)N[C@@H](Cc1c[nH]c2ccccc12)C(=O)N[C@@H](CC(C)C)C(=O)N[C@@H](CC(C)C)C(=O)N[C@@H](CCCCNC(=O)CC[C@H](NC(=O)CC[C@H](NC(=O)COCCOCCNC(=O)COCCOCCNC(=O)CC[C@H](NC(=O)CC[C@H](NC(=O)CCCCCCCCCCCCCCCCC(=O)O)C(=O)O)C(=O)O)C(=O)O)C(=O)O)C(=O)N[C@H](C(N)=O)[C@@H](C)O)C(C)C [Example 47, N^ε28-[(4S)-4-carboxy-4-[[(4S)-4-carboxy-4-[[2-[2-[2-[[2-[2-[2-[[(4S)-4-carboxy-4-[[(4S)-4-carboxy-4-(17-carboxyheptadecanoylamino)butanoyl]amino]butanoyl]amino]ethoxy]ethoxy]acetyl]amino]ethoxy]ethoxy]acetyl]amino]butanoyl]amino]butanoyl]-[Acb2,Leu10,Leu16,Lys17,Arg20,Glu21,Leu27,Lys28]-Glucagon amide] (H-H[Ac4c]QGTFTSDLSKYLDLKRAREFVQWLLK([γGlu-γGlu-AEEA-AEEA-γGlu-γGlu-C18 diacid])T-NH2; N-terminus assumed)	45
CC(C)C[C@H](NC(=O)[C@H](CC(=O)O)NC(=O)[C@H](CC(C)C)NC(=O)[C@H](Cc1ccc(O)cc1)NC(=O)[C@H](CCCCN)NC(=O)[C@H](CO)NC(=O)[C@H](CC(C)C)NC(=O)[C@H](CC(=O)O)NC(=O)[C@H](CO)NC(=O)[C@@H](NC(=O)[C@H](Cc1ccccc1)NC(=O)[C@@H](NC(=O)CNC(=O)[C@H](CCC(N)=O)NC(=O)C1(NC(=O)[C@@H](N)Cc2c[nH]cn2)CCC1)[C@@H](C)O)[C@@H](C)O)C(=O)N[C@@H](CCCCN)C(=O)N[C@@H](CCCNC(=N)N)C(=O)N[C@@H](C)C(=O)N[C@@H](CCCNC(=N)N)C(=O)N[C@@H](CCC(=O)O)C(=O)N[C@@H](Cc1ccccc1)C(=O)N[C@H](C(=O)N[C@@H](CCC(N)=O)C(=O)N[C@@H](Cc1c[nH]c2ccccc12)C(=O)N[C@@H](CC(C)C)C(=O)N[C@@H](CC(C)C)C(=O)N[C@@H](CCCCNC(=O)CNC(=O)[C@H](CO)NC(=O)[C@H](CCC(=O)O)NC(=O)CNC(=O)[C@H](CO)NC(=O)CC[C@H](NC(=O)CC[C@H](NC(=O)CCCCCCCCCCCCCCCCC(=O)O)C(=O)O)C(=O)O)C(=O)N[C@H](C(N)=O)[C@@H](C)O)C(C)C [Example 48] (I: H-H[Ac4c]QGTFTSDLSKYLDLKRAREFVQWLLKT-NH2 / II: {C18 diacid-γGlu-γGlu}-SGESG; amide I:28-II:C; N-terminus assumed)	45
CC(C)C[C@H](NC(=O)[C@H](CC(=O)O)NC(=O)[C@H](CC(C)C)NC(=O)[C@H](Cc1ccc(O)cc1)NC(=O)[C@H](CCCCN)NC(=O)[C@H](CO)NC(=O)[C@H](CC(C)C)NC(=O)[C@H](CC(=O)O)NC(=O)[C@H](CO)NC(=O)[C@@H](NC(=O)[C@H](Cc1ccccc1)NC(=O)[C@@H](NC(=O)CNC(=O)[C@H](CCC(N)=O)NC(=O)C1(NC(=O)[C@@H](N)Cc2c[nH]cn2)CCC1)[C@@H](C)O)[C@@H](C)O)C(=O)N[C@@H](CCCNC(=N)N)C(=O)N[C@@H](CCCNC(=N)N)C(=O)N[C@@H](C)C(=O)N[C@@H](CCCNC(=N)N)C(=O)N[C@@H](CCC(=O)O)C(=O)N[C@@H](Cc1ccccc1)C(=O)N[C@H](C(=O)N[C@@H](CCC(N)=O)C(=O)N[C@@H](Cc1c[nH]c2ccccc12)C(=O)N[C@@H](CC(C)C)C(=O)N[C@@H](CC(C)C)C(=O)N[C@@H](CCCCNC(=O)CC[C@H](NC(=O)CC[C@H](NC(=O)COCCOCCNC(=O)COCCOCCNC(=O)CC[C@H](NC(=O)CC[C@H](NC(=O)CCCCCCCCCCCCCCCCC(=O)O)C(=O)O)C(=O)O)C(=O)O)C(=O)O)C(=O)N[C@H](C(N)=O)[C@@H](C)O)C(C)C [Example 49, N^ε28-[(4S)-4-carboxy-4-[[(4S)-4-carboxy-4-[[2-[2-[2-[[2-[2-[2-[[(4S)-4-carboxy-4-[[(4S)-4-carboxy-4-(17-carboxyheptadecanoylamino)butanoyl]amino]butanoyl]amino]ethoxy]ethoxy]acetyl]amino]ethoxy]ethoxy]acetyl]amino]butanoyl]amino]butanoyl]-[Acb2,Leu10,Leu16,Arg20,Glu21,Leu27,Lys28]-Glucagon amide] (H-H[Ac4c]QGTFTSDLSKYLDLRRAREFVQWLLK([γGlu-γGlu-AEEA-AEEA-γGlu-γGlu-C18 diacid])T-NH2; N-terminus assumed)	45
CC(C)C[C@H](NC(=O)[C@H](Cc1c[nH]c2ccccc12)NC(=O)[C@H](CCC(N)=O)NC(=O)[C@@H](NC(=O)[C@H](Cc1ccccc1)NC(=O)[C@H](CCC(=O)O)NC(=O)[C@H](CCCNC(=N)N)NC(=O)[C@H](C)NC(=O)[C@H](CCCNC(=N)N)NC(=O)[C@H](CCCNC(=N)N)NC(=O)C(C)(C)NC(=O)[C@H](CC(=O)O)NC(=O)[C@H](CC(C)C)NC(=O)[C@H](Cc1ccc(O)cc1)NC(=O)[C@H](CCCCN)NC(=O)[C@H](CO)NC(=O)[C@H](CC(C)C)NC(=O)[C@H](CC(=O)O)NC(=O)[C@H](CO)NC(=O)[C@@H](NC(=O)[C@H](Cc1ccccc1)NC(=O)[C@@H](NC(=O)CNC(=O)[C@H](CCC(N)=O)NC(=O)C(C)(C)NC(=O)[C@@H](N)Cc1c[nH]cn1)[C@@H](C)O)[C@@H](C)O)C(C)C)C(=O)N[C@@H](CC(C)C)C(=O)N[C@@H](CCCCNC(=O)CC[C@H](NC(=O)CC[C@H](NC(=O)COCCOCCNC(=O)COCCOCCNC(=O)CC[C@H](NC(=O)CCCCCCCCCCCCCCCCC(=O)O)C(=O)O)C(=O)O)C(=O)O)C(=O)N[C@H](C(N)=O)[C@@H](C)O [Example 51, N^ε28-[(4S)-4-carboxy-4-[[(4S)-4-carboxy-4-[[2-[2-[2-[[2-[2-[2-[[(4S)-4-carboxy-4-(17-carboxyheptadecanoylamino)butanoyl]amino]ethoxy]ethoxy]acetyl]amino]ethoxy]ethoxy]acetyl]amino]butanoyl]amino]butanoyl]-[Aib2,Leu10,Aib16,Arg20,Glu21,Leu27,Lys28]-Glucagon amide] (H-H[Aib]QGTFTSDLSKYLD[Aib]RRAREFVQWLLK([γGlu-γGlu-AEEA-AEEA-γGlu-C18 diacid])T-NH2; N-terminus assumed)	45
